Experimental data published in ChEMBL document CHEMBL4507300 (2021).

Tests used:
[1] = target: Sodium-dependent dopamine transporter (Homo sapiens) (UniProt Q01959); conditions: Compound concentration 10.0 uM
[2] = target: Alpha-2B adrenergic receptor (Homo sapiens) (UniProt P18089); conditions: Compound concentration 10.0 uM
[3] = target: D(4) dopamine receptor (Homo sapiens) (UniProt P21917); conditions: Compound concentration 10.0 uM
[4] = target: D(2) dopamine receptor (Homo sapiens) (UniProt P14416); conditions: Compound concentration 10.0 uM
[5] = target: Beta-3 adrenergic receptor (Homo sapiens) (UniProt P13945); conditions: Compound concentration 10.0 uM
Rattus norvegicus = species on record: Rattus norvegicus; conditions: Compound concentration 10.0 uM
[6] = target: T1, 5-hydroxytryptamine receptor 2B (Homo sapiens, UniProt P41595); assay: GPCRScan assay: inhibition of 5-HT2B; parameters: radioligand conc. used [nm] 1.0 – 2.0, parental cells stable HEK
[7] = target: T2, GABA-A receptor; anion channel (Rattus norvegicus) (UniProt O09028+P15431+P18506+P18508+P19969+P20236+P23574+P23576+P28471+P28473+P30191+P62813+P63079+P63138+Q91ZM7+Q9ES14); conditions: Compound concentration 10.0 uM
[8] = target: 5-hydroxytryptamine receptor 1E (Homo sapiens) (UniProt P28566); conditions: Compound concentration 10.0 uM
Histamine H1 receptor [9] = target: T3, Histamine H1 receptor (Homo sapiens, UniProt P35367); assay: GPCRScan assay: inhibition of H1; parameters: radioligand conc. used [nm] 0.6 – 2.0, parental cells stable HEK
[10] = target: T4, Sigma non-opioid intracellular receptor 1 (Homo sapiens, UniProt Q99720); assay: GPCRScan assay: inhibition of Sigma 1; parameters: radioligand conc. used [nm] 4.0 – 5.0, parental cells HEKT
[11] = target: 5-hydroxytryptamine receptor 5A (Homo sapiens) (UniProt P47898); conditions: Compound concentration 10.0 uM
[12] = target: Muscarinic acetylcholine receptor M2 (Homo sapiens) (UniProt P08172); conditions: Compound concentration 10.0 uM
[13] = target: Muscarinic acetylcholine receptor M5 (Homo sapiens) (UniProt P08912); conditions: Compound concentration 10.0 uM
[14] = target: 5-hydroxytryptamine receptor 6 (Homo sapiens) (UniProt P50406); conditions: Compound concentration 10.0 uM
[15] = target: Kappa-type opioid receptor (Homo sapiens) (UniProt P41145); conditions: Compound concentration 10.0 uM
[16] = target: Histamine H4 receptor (Homo sapiens) (UniProt Q9H3N8); conditions: Compound concentration 10.0 uM
[17] = target: 5-hydroxytryptamine receptor 2C (Homo sapiens) (UniProt P28335); conditions: Compound concentration 10.0 uM
[18] = target: Alpha-2C adrenergic receptor (Homo sapiens) (UniProt P18825); conditions: Compound concentration 10.0 uM
[19] = target: 5-hydroxytryptamine receptor 2A (Homo sapiens) (UniProt P28223); conditions: Compound concentration 10.0 uM
[20] = target: Histamine H2 receptor (Homo sapiens) (UniProt P25021); conditions: Compound concentration 10.0 uM
[21] = target: Sodium-dependent noradrenaline transporter (Homo sapiens) (UniProt P23975); conditions: Compound concentration 10.0 uM
[22] = target: Alpha-1B adrenergic receptor (Homo sapiens) (UniProt P35368); conditions: Compound concentration 10.0 uM
[23] = target: T2, GABA-A receptor; anion channel (Rattus norvegicus); conditions: Compound concentration 10.0 uM; remark: listed apart in the source
[24] = target: 5-hydroxytryptamine receptor 1B (Homo sapiens) (UniProt P28222); conditions: Compound concentration 10.0 uM
[25] = target: Mu-type opioid receptor (Homo sapiens) (UniProt P35372); conditions: Compound concentration 10.0 uM
Histamine H1 receptor [26] = target: T3, Histamine H1 receptor; conditions: Compound concentration 10.0 uM
[27] = target: Beta-1 adrenergic receptor (Homo sapiens) (UniProt P08588); conditions: Compound concentration 10.0 uM
[28] = target: Delta-type opioid receptor (Homo sapiens) (UniProt P41143); conditions: Compound concentration 10.0 uM
[29] = target: Histamine H3 receptor (Homo sapiens) (UniProt Q9Y5N1); conditions: Compound concentration 10.0 uM
[30] = target: T1, 5-hydroxytryptamine receptor 2B; conditions: Compound concentration 10.0 uM
[31] = target: 5-hydroxytryptamine receptor 3A (Homo sapiens) (UniProt P46098); conditions: Compound concentration 10.0 uM
[32] = target: T5, Sodium-dependent serotonin transporter (Homo sapiens, UniProt P31645); assay: GPCRScan assay: inhibition of SERT; parameters: radioligand conc. used [nm] 1.5 – 2.0, parental cells stable HEK
[33] = target: Muscarinic acetylcholine receptor M1 (Homo sapiens) (UniProt P11229); conditions: Compound concentration 10.0 uM
[34] = target: 5-hydroxytryptamine receptor 1A (Homo sapiens) (UniProt P08908); conditions: Compound concentration 10.0 uM
[35] = target: D(3) dopamine receptor (Homo sapiens) (UniProt P35462); conditions: Compound concentration 10.0 uM
[36] = target: D(1B) dopamine receptor (Homo sapiens) (UniProt P21918); conditions: Compound concentration 10.0 uM
[37] = target: Alpha-1A adrenergic receptor (Homo sapiens) (UniProt P35348); conditions: Compound concentration 10.0 uM
[38] = target: Beta-2 adrenergic receptor (Homo sapiens) (UniProt P07550); conditions: Compound concentration 10.0 uM
[39] = target: T4, Sigma non-opioid intracellular receptor 1; conditions: Compound concentration 10.0 uM
[40] = target: Alpha-2A adrenergic receptor (Homo sapiens) (UniProt P08913); conditions: Compound concentration 10.0 uM
[41] = target: T5, Sodium-dependent serotonin transporter; conditions: Compound concentration 10.0 uM
[42] = target: Alpha-1D adrenergic receptor (Homo sapiens) (UniProt P25100); conditions: Compound concentration 10.0 uM
[43] = target: 5-hydroxytryptamine receptor 7 (Homo sapiens) (UniProt P34969); conditions: Compound concentration 10.0 uM
[44] = target: 5-hydroxytryptamine receptor 1D (Homo sapiens) (UniProt P28221); conditions: Compound concentration 10.0 uM
Sequence of 5-hydroxytryptamine receptor 1D (Homo sapiens) (P28221 whole entry): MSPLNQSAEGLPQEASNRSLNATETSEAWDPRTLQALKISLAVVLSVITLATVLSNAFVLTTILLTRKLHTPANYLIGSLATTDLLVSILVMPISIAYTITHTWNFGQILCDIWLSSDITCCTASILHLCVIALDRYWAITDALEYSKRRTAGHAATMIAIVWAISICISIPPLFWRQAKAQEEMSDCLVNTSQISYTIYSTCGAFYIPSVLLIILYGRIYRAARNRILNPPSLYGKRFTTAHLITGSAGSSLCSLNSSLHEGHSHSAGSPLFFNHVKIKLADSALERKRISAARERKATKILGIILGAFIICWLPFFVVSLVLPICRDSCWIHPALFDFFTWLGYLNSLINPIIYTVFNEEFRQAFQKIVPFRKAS

T4 sequence (Q99720 whole entry): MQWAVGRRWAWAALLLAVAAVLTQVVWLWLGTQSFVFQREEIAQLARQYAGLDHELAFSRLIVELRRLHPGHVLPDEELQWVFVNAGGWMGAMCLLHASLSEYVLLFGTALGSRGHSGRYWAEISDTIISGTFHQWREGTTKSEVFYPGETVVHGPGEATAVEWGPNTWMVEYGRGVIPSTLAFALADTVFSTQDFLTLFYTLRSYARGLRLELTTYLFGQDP
T3 sequence (P35367 whole entry): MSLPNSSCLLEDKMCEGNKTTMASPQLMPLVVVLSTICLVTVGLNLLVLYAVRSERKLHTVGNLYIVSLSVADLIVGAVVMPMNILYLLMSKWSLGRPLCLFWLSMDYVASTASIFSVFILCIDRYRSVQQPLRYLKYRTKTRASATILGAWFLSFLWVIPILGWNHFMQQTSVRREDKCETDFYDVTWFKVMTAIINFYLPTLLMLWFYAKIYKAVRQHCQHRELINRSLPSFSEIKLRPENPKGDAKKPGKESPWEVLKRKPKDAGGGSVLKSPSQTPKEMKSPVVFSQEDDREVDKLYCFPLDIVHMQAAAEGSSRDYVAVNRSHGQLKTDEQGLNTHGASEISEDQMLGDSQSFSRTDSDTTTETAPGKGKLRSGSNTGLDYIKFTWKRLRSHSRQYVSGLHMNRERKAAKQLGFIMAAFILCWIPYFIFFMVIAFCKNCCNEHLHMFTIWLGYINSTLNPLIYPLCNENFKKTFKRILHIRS
T1 sequence (P41595 whole entry): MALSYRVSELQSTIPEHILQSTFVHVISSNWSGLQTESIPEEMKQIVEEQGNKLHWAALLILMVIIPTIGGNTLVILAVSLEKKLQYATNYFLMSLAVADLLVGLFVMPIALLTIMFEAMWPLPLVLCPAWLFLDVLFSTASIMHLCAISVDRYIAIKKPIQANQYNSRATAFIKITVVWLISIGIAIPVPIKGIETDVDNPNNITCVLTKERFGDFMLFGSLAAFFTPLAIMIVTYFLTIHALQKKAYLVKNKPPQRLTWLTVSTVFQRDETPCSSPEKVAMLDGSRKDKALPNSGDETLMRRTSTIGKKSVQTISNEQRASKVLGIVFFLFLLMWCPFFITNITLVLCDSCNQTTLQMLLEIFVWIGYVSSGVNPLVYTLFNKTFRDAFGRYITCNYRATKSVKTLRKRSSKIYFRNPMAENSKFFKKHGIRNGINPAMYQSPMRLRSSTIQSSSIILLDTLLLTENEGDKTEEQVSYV
Sequence of Alpha-1B adrenergic receptor (Homo sapiens) (P35368 whole entry): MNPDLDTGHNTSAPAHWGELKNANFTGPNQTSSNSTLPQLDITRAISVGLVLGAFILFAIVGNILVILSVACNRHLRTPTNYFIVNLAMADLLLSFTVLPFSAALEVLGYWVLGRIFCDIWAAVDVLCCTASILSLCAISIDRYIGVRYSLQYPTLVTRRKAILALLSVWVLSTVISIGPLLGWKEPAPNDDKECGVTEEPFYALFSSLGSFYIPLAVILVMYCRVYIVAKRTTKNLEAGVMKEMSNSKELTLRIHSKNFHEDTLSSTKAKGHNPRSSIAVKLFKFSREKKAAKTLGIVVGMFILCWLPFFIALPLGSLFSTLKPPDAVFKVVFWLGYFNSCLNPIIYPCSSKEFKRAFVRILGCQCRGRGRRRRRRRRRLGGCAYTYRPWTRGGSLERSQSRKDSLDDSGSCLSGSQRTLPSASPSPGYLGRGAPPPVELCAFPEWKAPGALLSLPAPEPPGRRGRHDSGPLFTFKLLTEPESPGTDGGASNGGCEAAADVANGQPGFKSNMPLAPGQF
Sequence of Beta-2 adrenergic receptor (Homo sapiens) (P07550 whole entry, looked up): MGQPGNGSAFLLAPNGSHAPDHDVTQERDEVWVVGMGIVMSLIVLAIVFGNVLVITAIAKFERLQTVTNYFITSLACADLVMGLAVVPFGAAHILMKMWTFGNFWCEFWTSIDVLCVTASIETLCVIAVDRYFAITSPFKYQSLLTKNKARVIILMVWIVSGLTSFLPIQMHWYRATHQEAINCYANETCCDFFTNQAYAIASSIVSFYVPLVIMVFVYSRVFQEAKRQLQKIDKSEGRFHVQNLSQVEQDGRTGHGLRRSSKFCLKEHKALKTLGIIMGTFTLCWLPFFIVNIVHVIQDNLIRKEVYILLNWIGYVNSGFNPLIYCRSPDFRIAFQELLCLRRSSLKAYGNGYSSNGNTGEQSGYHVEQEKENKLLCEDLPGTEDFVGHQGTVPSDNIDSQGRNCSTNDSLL
Sequence of Alpha-1A adrenergic receptor (Homo sapiens) (P35348 whole entry): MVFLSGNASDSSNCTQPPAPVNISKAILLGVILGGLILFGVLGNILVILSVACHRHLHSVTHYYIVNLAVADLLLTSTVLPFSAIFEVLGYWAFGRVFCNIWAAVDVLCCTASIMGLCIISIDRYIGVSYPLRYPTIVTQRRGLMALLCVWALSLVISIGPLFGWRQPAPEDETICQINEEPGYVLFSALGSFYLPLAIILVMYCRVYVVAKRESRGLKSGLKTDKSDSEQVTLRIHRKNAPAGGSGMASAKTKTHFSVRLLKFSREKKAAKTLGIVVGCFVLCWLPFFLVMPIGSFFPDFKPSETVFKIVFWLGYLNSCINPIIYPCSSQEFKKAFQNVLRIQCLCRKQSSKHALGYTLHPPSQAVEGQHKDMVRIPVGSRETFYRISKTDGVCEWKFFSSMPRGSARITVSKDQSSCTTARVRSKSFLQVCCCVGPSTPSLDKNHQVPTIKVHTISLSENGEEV
Sequence of Muscarinic acetylcholine receptor M2 (Homo sapiens) (P08172 whole entry): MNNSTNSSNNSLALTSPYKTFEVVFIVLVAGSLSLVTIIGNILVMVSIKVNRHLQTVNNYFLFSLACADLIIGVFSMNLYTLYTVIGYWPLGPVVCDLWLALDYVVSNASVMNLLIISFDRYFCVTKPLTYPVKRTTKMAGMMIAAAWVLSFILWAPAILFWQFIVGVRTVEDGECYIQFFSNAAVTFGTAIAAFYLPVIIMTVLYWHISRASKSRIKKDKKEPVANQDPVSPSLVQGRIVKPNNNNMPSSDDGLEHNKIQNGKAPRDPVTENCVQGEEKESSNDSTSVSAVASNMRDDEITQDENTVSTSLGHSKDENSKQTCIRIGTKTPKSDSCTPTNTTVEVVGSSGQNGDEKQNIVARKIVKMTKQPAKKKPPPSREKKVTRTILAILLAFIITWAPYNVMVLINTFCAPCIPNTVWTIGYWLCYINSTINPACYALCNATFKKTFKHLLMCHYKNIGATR
Sequence of Beta-3 adrenergic receptor (Homo sapiens) (P13945 whole entry, looked up): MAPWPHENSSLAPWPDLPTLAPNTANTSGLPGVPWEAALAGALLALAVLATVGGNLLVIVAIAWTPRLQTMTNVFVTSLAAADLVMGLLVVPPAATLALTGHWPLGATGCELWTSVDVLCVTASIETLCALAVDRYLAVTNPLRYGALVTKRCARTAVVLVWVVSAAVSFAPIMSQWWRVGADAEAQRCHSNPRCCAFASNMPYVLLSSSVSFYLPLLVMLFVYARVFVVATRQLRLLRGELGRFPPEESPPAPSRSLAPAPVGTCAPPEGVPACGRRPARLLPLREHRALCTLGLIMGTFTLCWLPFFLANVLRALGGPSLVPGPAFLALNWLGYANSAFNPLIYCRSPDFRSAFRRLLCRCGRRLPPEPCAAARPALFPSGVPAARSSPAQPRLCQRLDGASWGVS
Sequence of D(3) dopamine receptor (Homo sapiens) (P35462 whole entry): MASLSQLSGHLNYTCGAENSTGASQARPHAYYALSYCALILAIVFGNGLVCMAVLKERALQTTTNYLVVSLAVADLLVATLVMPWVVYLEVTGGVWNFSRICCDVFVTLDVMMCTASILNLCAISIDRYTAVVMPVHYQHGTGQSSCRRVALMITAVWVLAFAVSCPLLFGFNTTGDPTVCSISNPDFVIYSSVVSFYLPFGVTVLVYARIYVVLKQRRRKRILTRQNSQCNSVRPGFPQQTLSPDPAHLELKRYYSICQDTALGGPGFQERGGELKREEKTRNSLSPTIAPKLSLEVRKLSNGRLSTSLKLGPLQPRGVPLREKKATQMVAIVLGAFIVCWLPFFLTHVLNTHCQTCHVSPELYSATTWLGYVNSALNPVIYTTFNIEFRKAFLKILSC
Sequence of D(4) dopamine receptor (Homo sapiens) (P21917 whole entry): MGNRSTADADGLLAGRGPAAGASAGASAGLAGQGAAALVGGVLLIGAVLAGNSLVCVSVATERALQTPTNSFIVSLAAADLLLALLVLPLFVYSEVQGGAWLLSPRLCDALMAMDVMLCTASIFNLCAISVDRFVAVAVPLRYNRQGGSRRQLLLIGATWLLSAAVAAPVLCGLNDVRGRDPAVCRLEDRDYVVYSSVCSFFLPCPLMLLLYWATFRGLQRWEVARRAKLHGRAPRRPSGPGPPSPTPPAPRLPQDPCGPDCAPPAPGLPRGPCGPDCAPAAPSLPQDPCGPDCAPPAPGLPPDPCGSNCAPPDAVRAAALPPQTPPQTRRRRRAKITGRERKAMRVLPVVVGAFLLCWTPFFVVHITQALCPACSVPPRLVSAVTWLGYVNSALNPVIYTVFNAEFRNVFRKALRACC

Compound COc1cccc(CNC(=O)c2nc3scc(CN(C)Cc4ccccc4)c3c(=O)[nH]2)c1 [T-26f] has an inhibition [1] of -7.85%, an inhibition [2] of 17.4% and an inhibition [3] of 14.4%. The inhibition [4] was 12.5%, the inhibition [5] was -4.01% and the inhibition (Rattus norvegicus) was 18.5%. It also gave a Ki [6] of 1600 nM, an inhibition [7] of 32.4% and an inhibition [8] of -0.688%. The Ki (Histamine H1 receptor [9]) was 19 nM, the Ki [10] was 263 nM and the inhibition [11] was 2.98%. The inhibition [12] was 26.6%, the inhibition [13] was 2.67% and the inhibition [14] was 3.76%. The inhibition [15] was 14.2%, the inhibition [16] was 21% and the inhibition [17] was 13.5%. It also gave an inhibition [18] of 16.3%, an inhibition [19] of 14.9% and an inhibition [20] of 30.7%. It also gave an inhibition [21] of 19.6%, an inhibition [22] of 12.9% and an inhibition [23] of 30.5%. It also gave an inhibition [24] of -2.26%, an inhibition [25] of 2.84% and an inhibition (Histamine H1 receptor [26]) of 73.4%. For the same compound, the inhibition [27] was 30.9%, the inhibition [28] was -5.54% and the inhibition [29] was 6.01%. It also gave an inhibition [30] of 51%, an inhibition [31] of 20.4% and a Ki [32] of 831 nM. The inhibition [33] was -8.97%, the inhibition [34] was 15.8% and the inhibition [35] was 20.1%. The inhibition [36] was 2.81%, the inhibition [37] was 12.5% and the inhibition [38] was -6.8%. It also gave an inhibition [39] of 80.7%, an inhibition [40] of 27.3% and an inhibition [41] of 84%. The inhibition [42] was 12.7%, the inhibition [43] was -5.94% and the inhibition [44] was -0.959%.
